In patent US20140057895A1, “INDAZOLE- AND PYRROLOPYRIDINE-DERIVATIVE AND PHARMACEUTICAL USE THEREOF” (priority 2011, published 2014):
Several values for one entry are separate records, joined by “and”; a condition that tells them apart may be missing. Equal entries are not always repeated. Marks after values point to notes of the source that are not given here.

Key:
[1] = system: scopolamine and MK801-induced cognitive impairment; assay: Example 5: Y-maze test, scopolamine and MK801-induced deficits, co-administration with donepezil (Table 102); type: in vivo, ddY mouse; conditions: Donepezil 10 mg/kg, p.o. alone
Source text: Thus, scopolamine-induced cognitive impairment model, one of the AD-like model, has been used to predict pharmacodynamic signals of putative procognitive compounds, utilizing the acetylcholinesterase inhibitor donepezil for illustration (See, Citations 1 and 2). The present inventors investigated the effect of each compound on reversal of scopolamine-induced deficits in performance of Y-maze test in mice, and they also investigated adjunctive effect of compounds with donepezil on reversal of deficits induced by scopolamine and MK801 in mice.
Used animal: ddY mouse (SLC)
In the experiments, the mice were grouped in the same way using Stat Preclinica (Version 1.03295; Takumi Information Technology Inc.). The selected mice were divided into 5 to 7 groups of 7 to 12 mice using the “completely randomization design by the single variable” program (Analytical program version 1.0.7), with body weight on the testing day. After grouping, p values for Bartlett's test and ANOVA across all groups were greater than 0.2, indicating no significant difference in this parameter among the groups.
The required amount of each compound was weighed and put into a glass homogenizer. The required amount of 0.5% MC (methyl cellulose) solution was added, and each compound was suspended to give a 10 mg/kg dosing suspension.
The required amount of donepezil was weighed and put into a glass homogenizer. The required amount of 0.5% MC solution was added, and donepezil was suspended to give a suspension at concentration of 1 mg/mL (10 mg/kg dosing suspension).
The required amount of scopolamine and MK801 were weighed, and saline was added to it to give 0.3 mg/mL and 0.015 mg/mL solution, respectively.
90 Min before the test, the mice were orally administered each compound, donepezil, and vehicle (0.5% methyl cellulose, 10 mL/kg). After 60 min, memory impairment was induced by administering scopolamine (0.6 mg/kg, s.c.) with (co-administration) or without (mono-administration) MK801 (0.03 mg/kg, s.c.). The control group received saline (2 mL/kg, s.c.) rather than scopolamine and MK801.
The Y-maze used herein is a three-arm maze with equal angles between all arms. The mazefloor and walls were constructed from black acrylic resin. The mice were initially placed within one arm, and the sequence and number of arm entries were recorded manually for each mouse over an 8-min period.
Data were processed and analyzed with Microsoft® Office Excel 2003. The alternation behavior was defined as entries into all three arms on consecutive occasions. The percent alternation behavior in each animal was calculated using the following formula, and rounded to one decimal place.
Alternation behavior(%)=[actual alternation/(total arm entries−2)]×100
Restoration ratio of alternation behavior (%) in each animal was calculated using the following formula, and rounded to one decimal place.
Restoration ratio of alternation behavior in each animal (%)=y Alternation behavior in each animal (%)=x Mean of alternation behavior in vehicle-treated group (group No. 1) (%)=A Mean of alternation behavior in scopolamine-treated group (group No. 2) (%)=B
Data were expressed as the mean of the percent alternation behavior, the number of total arm entries and the restoration ratio of alternation behavior.
Values of Y-maze tests are expressed as mean of alternation behavior (n=7−12).
Alternation behaviors in the scopolamine-treated groups were compared to those in the control groups using Wilcoxon rank sum test (Stat preclinical; Version 1.03295; Takumi Information Technology Inc.) with a two-sided significance level of 0.05.
Restoration of alternation behavior was analyzed using Stat Preclinica. Alternation behaviors in the Donepezil (10 mg/kg, p.o.)-treated group were compared to those in the co-administrated groups of test compounds with donepezil (10 mg/kg, p.o.) using non-parametric Dunnett multiple comparison test (Analytical program version 1.0.2) with a two-sided significance level of 0.05.

[2] = animal experiment using rats; cited from earlier work
[3] = phase II clinical trial with AD patients; cited from earlier work

| Compound | Alternation behavior (%) [1] | improving cognitive function [2] | lowering Aβ [2] | effect for improving cognitive function [3] |
| --- | --- | --- | --- | --- |
| COc1cc2c(cc1OC)C(=O)C(CC1CCN(Cc3ccccc3)CC1)C2 (stereo not shown) [Donepezil, donepezil, reference compound] | 51.5^# % and 49.9^# % | – | – | – |
| CC(C)n1c(=O)c(C(=O)NCCCN2CCCCC2)c(O)c2ccsc21 [PRX-03140] | – | efficacious for improving cognitive function | lowering Aβ | shows the effect for improving cognitive function |
